In patent US5565568A, “2-acylaminopropanamides as tachykinin receptor antagonists” (Eli Lilly and Company, priority 1995, dated 1996):
Structures can show the parent of a compound that is named as a salt.

Tests used:
human NK-2 receptor = target: T1, human NK-2 receptor (Homo sapiens, UniProt P21452); experiment: NK-2 Receptor Binding Assay ([125I]iodohistidyl-neurokinin A, CHO-hNK-2R membranes); conditions: inhibition of [125I]iodohistidyl-neurokinin A binding, 1 hour at room temperature, certain values may be average of more than one experiment
T1 construct: expressed in transfected cells; host or cells: CHO-hNK-2R cells (membranes)
T1 sequence (P21452 1-398): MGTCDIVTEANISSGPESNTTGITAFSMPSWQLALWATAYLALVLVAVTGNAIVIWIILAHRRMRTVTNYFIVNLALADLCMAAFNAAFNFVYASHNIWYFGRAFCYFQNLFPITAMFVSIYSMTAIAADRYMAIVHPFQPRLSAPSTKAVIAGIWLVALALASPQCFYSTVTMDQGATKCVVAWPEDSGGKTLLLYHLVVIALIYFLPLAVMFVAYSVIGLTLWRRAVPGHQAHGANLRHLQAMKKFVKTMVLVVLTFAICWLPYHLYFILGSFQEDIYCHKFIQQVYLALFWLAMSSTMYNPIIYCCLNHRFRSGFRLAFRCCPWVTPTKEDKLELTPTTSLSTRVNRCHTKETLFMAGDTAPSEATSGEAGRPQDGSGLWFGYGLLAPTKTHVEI
Experimental: (§1) The biological activity of the compounds of the present invention is evaluated employing an initial screening assay which rapidly and accurately measured the binding of the tested compound to known NK-1 and NK-2 receptor sites. Assays useful for evaluating tachykinin receptor antagonists are well known in the art. See, e.g., J. Jukic, et al., Life Sciences, 49:1463-1469 (1991); N. Kucharczyk, et al., Journal of Medicinal Chemistry, 36:1654-1661 (1993); N. Rouissi, et al., Biochemical and Biophysical Research Communications, 176:894-901 (1991).
NK-2 Receptor Binding Assay
The CHO-hNK-2R cells, a CHO-derived cell line transformed with the human NK-2 receptor, expressing about 400,000 such receptors per cell, are grown in 75 cm^2 flasks or roller bottles in minimal essential medium (alpha modification) with 10% fetal bovine serum. The gene sequence of the human NK-2 receptor is given in N. P. Gerard, et al., Journal of Biological Chemistry, 265:20455-20462 (1990).
For preparation of membranes, 30 confluent roller bottle cultures are dissociated by washing each roller bottle with 10 ml of Dulbecco's phosphate buffered saline (PBS) without calcium and magnesium, followed by addition of 10 ml of enzyme-free cell dissociation solution (PBS-based, from Specialty Media, Inc.). After an additional 15 minutes, the dissociated cells are pooled and centrifuged at 1,000 RPM for 10 minutes in a clinical centrifuge. Membranes are prepared by homogenization of the cell pellets in 300 ml 50 mM Tris buffer, pH 7.4 with a Tekmar® homogenizer for 10-15 seconds, followed by centrifugation at 12,000 RPM (20,000 x g) for 30 minutes using a Beckman JA-14® rotor. The pellets are washed once using the above procedure. and the final pellets are resuspended in 100-120 ml 50 mM Tris buffer, pH 7.4, and 4 ml aliquots stored frozen at -70° C. The protein concentration of this preparation is 2 mg/ml.
For the receptor binding assay, one 4-ml aliquot of the CHO-hNK-2R membrane preparation is suspended in 40 ml of assay buffer containing 50 mM Tris, pH 7.4, 3 mM manganese chloride, 0.02% bovine serum albumin (BSA) and 4 μg/ml chymostatin. A 200 μl volume of the homogenate (40 μg protein) is used per sample. The radioactive ligand is [^125 I]iodohistidyl-neurokinin A (New England Nuclear, NEX-252), 2200 Ci/mmol. The ligand is prepared in assay buffer at 20 nCi per 100 μl; the final concentration in the assay is 20 pM. Non-specific binding is determined using 1 μM eledoisin. Ten concentrations of eledoisin from 0.1 to 1000 nM are used for a standard concentration-response curve.
All samples and standards are added to the incubation in 10 μl dimethylsulfoxide (DMSO) for screening (single dose) or in 5 μl DMSO for IC50 determinations. The order of additions for incubation is 190 or 195 μl assay buffer, 200 μl homogenate, 10 or 5 μl sample in DMSO, 100 μl radioactive ligand. The samples are incubated 1 hour at room temperature and then filtered on a cell harvester through filters which had been presoaked for two hours in 50 mM Tris buffer, pH 7.7, containing 0.5% BSA. The filter is washed 3 times with approximately 3 ml of cold 50 mM Tris buffer, pH 7.7. The filter circles are then punched into 12×75 mm polystyrene tubes and counted in a gamma counter.
(§2) Column 1 provides the example number of the test antagonist compound as detailed supra. The next columns define the concentration of the test compound (in nanomolar quantities) which inhibits fifty percent of the binding of the appropriate neurokinin, as defined in the column heading. Certain values may represent the average of more than one experiment.

NK-1 receptor = target: T2, NK-1 receptor (Homo sapiens, UniProt P25103); experiment: NK-1 Receptor Binding Assay (125I-labeled substance P, IM9 cells); conditions: inhibition of 125I-substance P binding to IM9 cells, 45 minutes at 4° C.; certain values may be average of more than one experiment
T2 construct: In this assay an aliquot of IM9 cells; endogenous in cells; host or cells: IM9 cells
T2 sequence (P25103 whole entry): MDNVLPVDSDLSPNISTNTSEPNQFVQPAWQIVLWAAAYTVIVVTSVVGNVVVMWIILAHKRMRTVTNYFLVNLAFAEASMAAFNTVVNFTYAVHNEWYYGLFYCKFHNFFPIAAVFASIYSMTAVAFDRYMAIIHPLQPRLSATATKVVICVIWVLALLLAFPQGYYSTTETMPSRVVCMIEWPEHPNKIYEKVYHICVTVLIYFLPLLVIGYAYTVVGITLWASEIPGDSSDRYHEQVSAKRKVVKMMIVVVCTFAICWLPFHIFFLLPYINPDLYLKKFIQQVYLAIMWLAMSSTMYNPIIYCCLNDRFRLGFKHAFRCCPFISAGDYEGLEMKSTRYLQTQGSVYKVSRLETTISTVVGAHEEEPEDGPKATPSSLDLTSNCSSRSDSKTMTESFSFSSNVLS
Experimental: as §1
NK-1 Receptor Binding Assay
Radioreceptor binding assays are performed using a derivative of a previously published protocol. D. G. Payan, et al., Journal of Immunology, 133:3260-3265 (1984). In this assay an aliquot of IM9 cells (1×10^6 cells/tube in […] medium supplemented with 10% fetal calf serum) is incubated with 20 pM ^125 I-labeled substance P in the presence of increasing competitor concentrations for 45 minutes at 4° C.
The IM9 cell line is a well-characterized cell line which is readily available to the public. See, e.g., Annals of the New York Academy of Science, 190: 221-234 (1972); Nature (London), 251:443-444 (1974); Proceedings of the National Academy of Sciences (USA), 71:84-88 (1974). These cells are routinely cultured in RPMI 1640 supplemented with 50 μg/ml gentamicin sulfate and 10% fetal calf serum.
The reaction is terminated by filtration through a glass fiber filter harvesting system using filters previously soaked for 20 minutes in 0.1% polyethylenimine. Specific binding of labeled substance P is determined in the presence of 20 nM unlabeled ligand.
as §2

benzodiazepine receptor = conditions: Biochemical Pharmacology, 30:3016-3019 (1981); cited from earlier work
rat alpha-fetoprotein = conditions: Journal of Steroid Biochemistry, 16:503-507 (1982); in vitro; cited from earlier work
human erythrocytes = conditions: Arzneim-Forsch, 32(I):684-685 (1982); in vitro; cited from earlier work
[1] = tested on: glucose transport in human erythrocytes; conditions: Arzneim-Forsch, 32(I):684-685 (1982); in vitro; cited from earlier work

O=C(CN1CCC(Cc2ccccc2)CC1)NC(Cc1c[nH]c2ccccc12)C(=O)NCc1ccccc1Cl (centres unmarked) [Example 1, N-(2-chlorobenzyl)-3-(1H-indol-3-yl)-2-[(4-benzylpiperidin-1-yl)acetyl]amino]propanamide hydrochloride salt]
IC50 (human NK-2 receptor): 330 nM | IC50 (NK-1 receptor): 290 nM

O=C1CN(CC(=O)NC(Cc2c[nH]c3ccccc23)C(=O)NCc2ccccc2Cl)C(=O)CN1 (centres unmarked) [Example 2]
IC50 (human NK-2 receptor): 1500 nM | IC50 (NK-1 receptor): 230 nM

O=C(CN1CC(=O)N(Cc2ccccc2)CC1=O)NC(Cc1c[nH]c2ccccc12)C(=O)NCc1ccccc1 (centres unmarked) [Example 3]
IC50 (human NK-2 receptor): 1500 nM

O=C(CN1CC(=O)N(Cc2ccccc2)CC1=O)NC(Cc1c[nH]c2ccccc12)C(=O)Nc1ccccc1 (centres unmarked) [Example 4]
IC50 (human NK-2 receptor): 2100 nM

O=C(CN1CC(=O)N(Cc2ccccc2)CC1=O)NC(Cc1c[nH]c2ccccc12)C(=O)NCCc1ccccc1 (centres unmarked) [Example 5]
IC50 (human NK-2 receptor): 740 nM

O=C(CN1CC(=O)N(Cc2ccccc2)CC1=O)NC(Cc1c[nH]c2ccccc12)C(=O)NCc1ccccc1Cl (centres unmarked) [Example 6]
IC50 (human NK-2 receptor): 82 nM | IC50 (NK-1 receptor): 41 nM

O=C(CN1CCCCC1)NC(Cc1c[nH]c2ccccc12)C(=O)NCc1ccccc1Cl (centres unmarked) [Example 7]
IC50 (human NK-2 receptor): 2200 nM | IC50 (NK-1 receptor): 730 nM

CN1CCN(CC(=O)NC(Cc2c[nH]c3ccccc23)C(=O)NCc2ccccc2Cl)CC1 (centres unmarked) [Example 8]
IC50 (human NK-2 receptor): 3400 nM | IC50 (NK-1 receptor): 78 nM

O=C(CN1CCN(c2ccccc2)CC1)NC(Cc1c[nH]c2ccccc12)C(=O)NCc1ccccc1Cl (centres unmarked) [Example 9]
IC50 (human NK-2 receptor): 240 nM | IC50 (NK-1 receptor): 30 nM

O=C(CN1CCC(c2ccccc2)CC1)NC(Cc1c[nH]c2ccccc12)C(=O)NCc1ccccc1Cl (centres unmarked) [Example 10]
IC50 (human NK-2 receptor): 570 nM | IC50 (NK-1 receptor): 140 nM

O=C(CN1CCN(Cc2ccccc2)CC1)NC(Cc1c[nH]c2ccccc12)C(=O)NCc1ccccc1Cl (centres unmarked) [Example 13, N-(2-chlorobenzyl)-3-(1H-indol-3-yl)-2-[(4-benzylpiperazin-1-yl)acetyl]amino]propanamide dihydrochloride salt]
IC50 (human NK-2 receptor): 240 nM | IC50 (NK-1 receptor): 34 nM

COc1ccccc1CNC(=O)C(Cc1c[nH]c2ccccc12)NC(=O)CN1CCN(c2ccccc2)CC1 (centres unmarked) [Example 14]
IC50 (human NK-2 receptor): 650 nM | IC50 (NK-1 receptor): 67 nM

CN(Cc1ccccc1)C(=O)C(Cc1c[nH]c2ccccc12)NC(=O)CN1CCN(c2ccccc2)CC1 (centres unmarked) [Example 15]
IC50 (NK-1 receptor): 180 nM

O=C(CN1CCN(c2ccccc2)CC1)NC(Cc1c[nH]c2ccccc12)C(=O)NCc1ccccc1 (centres unmarked) [Example 16]
IC50 (human NK-2 receptor): 430 nM | IC50 (NK-1 receptor): 140 nM

O=C(CN1CCN(c2ccccc2)CC1)NC(Cc1c[nH]c2ccccc12)C(=O)NCc1ccc(Cl)cc1 (centres unmarked) [Example 17]
IC50 (human NK-2 receptor): 210 nM | IC50 (NK-1 receptor): 210 nM

CN1CC(=O)N(CC(=O)NC(Cc2c[nH]c3ccccc23)C(=O)NCc2ccccc2Cl)CC1=O (centres unmarked) [Example 18]
IC50 (human NK-2 receptor): 3100 nM | IC50 (NK-1 receptor): 95 nM

NC(Cc1c[nH]c2ccccc12)C(=O)OCc1ccccc1 (centres unmarked) [benzyl 3-(3-indolyl)-2-aminopropionate]
Inhibition of benzodiazepine receptor binding in vitro (benzodiazepine receptor): Inhibition | inhibition of estrogen binding to rat alpha-fetoprotein (rat alpha-fetoprotein): weak inhibition

CC(N)(C(=O)OCc1ccccc1)c1c[nH]c2ccccc12 (centres unmarked) [benzyl (2-(3-indolyl)-2-aminopropionate]
antisickling activity (human erythrocytes): antisickling agent | inhibition of glucose transport in human erythrocytes [1]: inhibitor of glucose transport
